Laboratory results from PMC12801355, “Peptide Amphiphiles Hitchhike on Endogenous Biomolecules for Enhanced Cancer Imaging and Therapy” (Advanced Materials (Deerfield Beach, Fla.), 2025).
Where a SMILES comes first, the peptide text is derived from it. The star is where a group is joined. Palmitoyl = CCCCCCCCCCCCCCCC(=O)*

Columns and labels:
[1] = target: T1, human plasma proteins (Homo sapiens, UniProt O95445); assay: Mass spectrometry of proteins pulled down with biotinylated SA‐E (SA‐Eb) from human plasma; assay type: binding
T1 construct: incubated with 50% pooled human plasma at 37 °C for 2 h; from tissue; host or cells: pooled human plasma (50%)
Procedure: (§1) Samples were prepared for mass spectrometry analysis via a pull‐down of a biotinylated version of the SA‐E probe (SA‐Eb, 100 µM) incubated with 50% pooled human plasma at 37 °C for 2 h. Before incubation with the SA‐Eb‐plasma mixture, magnetic streptavidin‐coated beads (Dynabeads MyOne Streptavidin T1, Invitrogen, 65601) were washed with PBS (10 mM, pH 7.4) then blocked with 1% casein equal to the total initial volume of beads for 15 min at room temperature. After blocking, beads were washed again with PBS. Beads were then combined with SA‐Eb‐plasma solution, 25 µL beads to 200 µL mixture. This mixture was then incubated at room temperature for 30 min. After incubation, the remaining solution was removed, and the beads were washed five times with PBS. Bound SA‐Eb was eluted from beads in 30 µL 0.5% Triton X‐100 solution. Magnetic beads were then removed, and the elution was collected for analysis. For plasma control, the incubation with SA‐Eb step was skipped, and 50% plasma in PBS was incubated with beads and washed and eluted using the same method as the SA‐Eb‐plasma solution. The elution solutions were then analyzed by the Proteomics Shared Resource facility at Oregon Health & Science University (See Supporting Information for details).
(§2) Sample Preparation. Eluted plasma samples were dried down and stored at -80°C. Samples were thawed at room temperature for 10 min, and 75 µL of SDS protein extraction buffer (5% SDS, 50 mM […]; TEAB) was added to each sample. Samples were shaken in a Thermo mixer for 10 minutes at room temperature and centrifuged at 10,000 g for 5 min. Each sample was transferred from a 0.5 mL tube to a 1.5 mL LoBind centrifuge tube. Samples were reduced by adding 3.4 µL of 0.5 M dithiothreitol and incubated at 95 °C for 10 min. Samples were alkylated by the addition of 6.8 µL of 0.5 M iodoacetamide and were incubated at room temperature for 30 min in the dark. Samples were then acidified by the addition of 8.52 µL of 12% phosphoric acid, and 562 µL of SDS protein binding buffer (90% methanol, 100 mM TEAB, pH 7.51). Samples were transferred 165 µL at a time to S-trap micro columns (Protifi, Farmingdale, NY) and inserted into 1.5 mL of polypropylene tubes. Samples were centrifuged at 4,000 g for 3 min between each addition of the sample. S-trap columns were washed 6 times using 150 µL of 90% methanol containing 100 mM of TEAB followed by centrifugation at 4,000g for 3 min between each wash step. S-trap columns containing the bound sample proteins were transferred to 1.5 mL LoBind centrifuge tubes and 40 µL of 80 ng/µL sequencing grade modified trypsin (Pierce TM Trypsin Protease MS-Grade, XG348166) in 50 mM TEAB was added. S-trap columns were loosely capped, and digestion was performed at 37°C overnight in a humidified chamber.
(§3) After completion of digestion, peptides were eluted by sequential addition of 40 µL of TEAB, 40 µL of 0.2% aqueous formic acid, and 40 µl of 50% acetonitrile, 0.2% formic acid, with centrifugation at 4,000 g for 4 min between each addition of elution buffer. The elution fractions were combined and then dried by vacuum centrifugation. Samples were reconstituted by adding 20 µL of 5% formic acid, shaking at 37 °C, and spinning at 15,000 g for 5 min. The supernatant of each sample was transferred to an auto-sample vial.
(§4) Data analysis. Mass spectrometry data from all samples were processed using COMET/PAWS against Uniprot_Human_database. Comet (v. 2016.01, rev. 3)^8 was used to search MS2 Spectra against a January 2023 version of canonical FASTA protein database containing human uniprot sequences, and concatenated sequence-reversed entries to estimate error thresholds and 179 common contaminant sequences and their reversed forms. The database processing was performed using python scripts available at https://github.com/pwilmart/fasta_utilities.git and Comet results were processed using the PAW pipeline2 from https://github.com/pwilmart/PAW_pipeline.git.

[2] = target: T2, human plasma proteins (Homo sapiens, UniProt P02768); assay: as above; assay type: binding; conditions: for Total Counts, Albumin: pull‐down with biotinylated SA-E
T2 construct: incubated with 50% pooled human plasma at 37 °C for 2 h; from tissue; host or cells: pooled human plasma (50%)
Procedure: as §1, §2, §3, §4

[3] = target: T3, human plasma proteins (Homo sapiens, UniProt P02654); assay: as above; assay type: binding
T3 construct: incubated with 50% pooled human plasma at 37 °C for 2 h; from tissue; host or cells: pooled human plasma (50%)
T3 sequence (P02654 27-83): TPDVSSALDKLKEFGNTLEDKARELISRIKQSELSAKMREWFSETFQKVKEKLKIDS
Procedure: as §1, §2, §3, §4

[4] = target: T4, human plasma proteins (Homo sapiens, UniProt P05090); assay: as above; assay type: binding
T4 construct: incubated with 50% pooled human plasma at 37 °C for 2 h; from tissue; host or cells: pooled human plasma (50%)
Procedure: as §1, §2, §3, §4

[5] = target: T5, human plasma proteins (Homo sapiens, UniProt P08519); assay: as above; assay type: binding
T5 construct: incubated with 50% pooled human plasma at 37 °C for 2 h; from tissue; host or cells: pooled human plasma (50%)
Procedure: as §1, §2, §3, §4

[6] = target: T6, human plasma proteins (Homo sapiens, UniProt P02652); assay: as above; assay type: binding
T6 construct: incubated with 50% pooled human plasma at 37 °C for 2 h; from tissue; host or cells: pooled human plasma (50%)
Procedure: as §1, §2, §3, §4

[7] = target: T7, human plasma proteins (Homo sapiens, UniProt P02647); assay: as above; assay type: binding
T7 construct: incubated with 50% pooled human plasma at 37 °C for 2 h; from tissue; host or cells: pooled human plasma (50%)
Procedure: as §1, §2, §3, §4

[8] = Stability of PA nanostructures in plasma (fluorescence recovery); assay type: in vitro ADME, human
Procedure: ICG or Cy5 conjugated PAs were dissolved in PBS (10 mM, pH 7.4) at a concentration of 1 or 100 µM, and 90 µL aliquots of these solutions were added to a 96 well plate (4 wells for each PA). Then, 10 µL of pooled human plasma was added to each well, and fluorescence spectra of ICG or Cy5 were recorded using a microplate reader (TECAN Spark 20 M) at different time points.

T1 sequence (O95445 whole entry): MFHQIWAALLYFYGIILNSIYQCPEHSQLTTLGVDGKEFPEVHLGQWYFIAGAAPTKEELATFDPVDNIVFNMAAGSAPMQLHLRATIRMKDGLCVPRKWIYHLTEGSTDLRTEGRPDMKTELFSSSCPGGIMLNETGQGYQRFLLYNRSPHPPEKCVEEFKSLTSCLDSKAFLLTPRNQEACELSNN
T5 sequence (P08519 20-2040): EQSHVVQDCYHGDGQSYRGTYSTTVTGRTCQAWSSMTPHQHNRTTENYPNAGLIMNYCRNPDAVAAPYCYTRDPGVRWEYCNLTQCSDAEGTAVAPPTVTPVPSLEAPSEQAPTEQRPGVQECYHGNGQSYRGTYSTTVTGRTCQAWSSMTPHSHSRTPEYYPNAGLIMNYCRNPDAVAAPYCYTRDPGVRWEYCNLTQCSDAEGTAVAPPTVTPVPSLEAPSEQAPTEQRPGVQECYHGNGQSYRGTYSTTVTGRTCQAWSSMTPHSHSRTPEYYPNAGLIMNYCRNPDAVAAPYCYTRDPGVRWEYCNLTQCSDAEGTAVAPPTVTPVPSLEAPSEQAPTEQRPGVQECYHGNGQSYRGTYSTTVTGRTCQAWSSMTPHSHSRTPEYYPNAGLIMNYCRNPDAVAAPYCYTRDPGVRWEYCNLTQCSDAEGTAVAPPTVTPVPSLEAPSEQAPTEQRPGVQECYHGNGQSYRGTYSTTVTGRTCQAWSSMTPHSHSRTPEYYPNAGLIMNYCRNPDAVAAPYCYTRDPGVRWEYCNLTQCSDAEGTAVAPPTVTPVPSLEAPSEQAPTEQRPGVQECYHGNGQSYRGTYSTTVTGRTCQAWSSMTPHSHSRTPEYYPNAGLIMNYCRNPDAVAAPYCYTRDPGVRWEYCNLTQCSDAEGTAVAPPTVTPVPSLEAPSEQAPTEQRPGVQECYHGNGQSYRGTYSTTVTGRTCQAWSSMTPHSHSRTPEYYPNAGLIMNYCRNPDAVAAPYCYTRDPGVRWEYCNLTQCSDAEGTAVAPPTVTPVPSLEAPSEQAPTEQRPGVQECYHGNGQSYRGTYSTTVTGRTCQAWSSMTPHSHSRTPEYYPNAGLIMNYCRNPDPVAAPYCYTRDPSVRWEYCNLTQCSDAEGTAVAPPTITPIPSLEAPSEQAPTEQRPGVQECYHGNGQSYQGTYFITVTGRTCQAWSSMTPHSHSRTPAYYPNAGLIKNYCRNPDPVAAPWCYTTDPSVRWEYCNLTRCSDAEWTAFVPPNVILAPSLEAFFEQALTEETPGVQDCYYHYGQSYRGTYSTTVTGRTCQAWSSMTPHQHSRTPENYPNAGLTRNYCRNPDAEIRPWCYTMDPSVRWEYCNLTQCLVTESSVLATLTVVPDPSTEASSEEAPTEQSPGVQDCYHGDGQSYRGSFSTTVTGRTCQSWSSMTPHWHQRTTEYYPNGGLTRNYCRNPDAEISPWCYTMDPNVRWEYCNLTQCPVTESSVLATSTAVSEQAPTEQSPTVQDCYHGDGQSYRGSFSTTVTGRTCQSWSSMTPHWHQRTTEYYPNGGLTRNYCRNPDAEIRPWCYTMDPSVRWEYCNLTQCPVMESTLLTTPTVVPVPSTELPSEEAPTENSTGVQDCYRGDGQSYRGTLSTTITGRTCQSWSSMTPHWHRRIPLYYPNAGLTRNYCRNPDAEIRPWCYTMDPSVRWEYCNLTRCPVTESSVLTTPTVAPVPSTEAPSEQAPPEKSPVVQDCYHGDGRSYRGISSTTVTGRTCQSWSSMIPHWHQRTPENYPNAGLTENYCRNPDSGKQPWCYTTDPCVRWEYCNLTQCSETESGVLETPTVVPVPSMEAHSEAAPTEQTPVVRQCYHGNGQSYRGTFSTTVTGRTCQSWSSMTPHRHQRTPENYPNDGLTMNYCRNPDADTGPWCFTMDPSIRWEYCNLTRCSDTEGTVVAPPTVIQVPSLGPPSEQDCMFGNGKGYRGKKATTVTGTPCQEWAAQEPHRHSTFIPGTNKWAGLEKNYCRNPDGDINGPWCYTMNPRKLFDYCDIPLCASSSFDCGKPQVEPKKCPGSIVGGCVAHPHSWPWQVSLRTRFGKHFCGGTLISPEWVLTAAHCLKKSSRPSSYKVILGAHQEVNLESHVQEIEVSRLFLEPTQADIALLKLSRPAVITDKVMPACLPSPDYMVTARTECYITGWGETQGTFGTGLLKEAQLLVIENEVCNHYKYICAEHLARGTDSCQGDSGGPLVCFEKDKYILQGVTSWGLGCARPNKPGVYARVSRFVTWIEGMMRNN
T2 sequence (P02768 25-609): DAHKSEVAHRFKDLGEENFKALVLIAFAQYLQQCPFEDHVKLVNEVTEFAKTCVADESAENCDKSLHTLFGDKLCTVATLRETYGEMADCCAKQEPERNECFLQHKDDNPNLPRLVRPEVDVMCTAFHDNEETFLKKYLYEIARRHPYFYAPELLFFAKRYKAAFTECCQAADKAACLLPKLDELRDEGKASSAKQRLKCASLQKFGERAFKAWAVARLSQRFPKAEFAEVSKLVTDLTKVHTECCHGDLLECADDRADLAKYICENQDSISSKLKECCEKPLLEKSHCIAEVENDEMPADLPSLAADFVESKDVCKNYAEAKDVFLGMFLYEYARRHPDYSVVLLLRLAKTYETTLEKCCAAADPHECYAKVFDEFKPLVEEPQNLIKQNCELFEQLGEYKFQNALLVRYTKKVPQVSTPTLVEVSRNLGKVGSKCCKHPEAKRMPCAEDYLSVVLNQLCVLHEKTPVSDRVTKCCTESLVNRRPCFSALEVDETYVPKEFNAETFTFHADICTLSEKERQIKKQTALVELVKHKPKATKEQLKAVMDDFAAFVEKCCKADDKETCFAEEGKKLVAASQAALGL
T6 sequence (P02652 19-100): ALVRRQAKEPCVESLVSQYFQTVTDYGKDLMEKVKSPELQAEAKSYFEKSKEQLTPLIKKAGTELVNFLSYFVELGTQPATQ
T7 sequence (P02647 19-267): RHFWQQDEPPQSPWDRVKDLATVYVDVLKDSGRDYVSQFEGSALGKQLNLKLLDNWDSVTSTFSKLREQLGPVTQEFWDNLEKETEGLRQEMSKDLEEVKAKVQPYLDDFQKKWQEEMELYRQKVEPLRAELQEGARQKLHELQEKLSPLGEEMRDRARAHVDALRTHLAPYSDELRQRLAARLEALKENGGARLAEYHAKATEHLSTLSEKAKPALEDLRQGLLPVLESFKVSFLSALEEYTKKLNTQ
T4 sequence (P05090 21-189): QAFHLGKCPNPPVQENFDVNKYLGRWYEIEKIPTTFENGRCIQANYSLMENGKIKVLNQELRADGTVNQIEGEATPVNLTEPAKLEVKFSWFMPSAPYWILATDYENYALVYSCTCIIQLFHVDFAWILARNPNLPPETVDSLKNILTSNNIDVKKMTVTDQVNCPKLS

## CCCCCCCCCCCCCCCC(=O)NCC(=O)NCC(=O)NCC(=O)N[C@@H](Cc1c[nH]cn1)C(=O)N[C@@H](C)C(=O)N[C@@H](C)C(=O)N[C@@H](CC(N)=O)C(=O)NCC(=O)N[C@@H](CCC(=O)O)C(=O)N[C@@H](CCC(=O)O)C(=O)N[C@@H](CS)C(=O)N[C@@H](CCC(=O)O)C(=O)O [SA‐E] (Palmitoyl-GGGHAANGEECE-OH)
[1]; replicate 1
  Percentage, Apolipoprotein M: 0.3%
  Total Counts, Apolipoprotein M: 11
[1]; replicate 2
  Percentage, Apolipoprotein M: 0.4%
  Total Counts, Apolipoprotein M: 12
[2]; replicate 1
  Total Counts, Albumin: 1215
  Percentage, Albumin: 34.0%
[2]; replicate 2
  Total Counts, Albumin: 923
  Percentage, Albumin: 32.5%
[3]; replicate 1
  Percentage, Apolipoprotein C-I: 0.2%
  Total Counts, Apolipoprotein C-I: 6
[3]; replicate 2
  Percentage, Apolipoprotein C-I: 0.3%
  Total Counts, Apolipoprotein C-I: 9
[4]; replicate 1
  Percentage, Apolipoprotein D: 0.6%
  Total Counts, Apolipoprotein D: 22
[4]; replicate 2
  Percentage, Apolipoprotein D: 0.8%
  Total Counts, Apolipoprotein D: 22
[5]; replicate 1
  Percentage, Apolipoprotein(a): 0.1%
  Total Counts, Apolipoprotein(a): 4
[5]; replicate 2
  Percentage, Apolipoprotein(a): 0.1%
  Total Counts, Apolipoprotein(a): 3
[6]; replicate 1
  Percentage, Apolipoprotein A-II: 0.2%
  Total Counts, Apolipoprotein A-II: 6
[6]; replicate 2
  Percentage, Apolipoprotein A-II: 0.2%
  Total Counts, Apolipoprotein A-II: 6
[7]; replicate 1
  Percentage, Apolipoprotein A-I: 15.7%
  Total Counts, Apolipoprotein A-I: 560
[7]; replicate 2
  Percentage, Apolipoprotein A-I: 21.1%
  Total Counts, Apolipoprotein A-I: 600
[8]; Cy5 conjugated PAs 100 µM, 10% human plasma, 1 h
  increase in Cy5 fluorescence in plasma relative to SA‐K: ≈ 10 fold
[8]; ICG conjugated PAs 1 or 100 µM in PBS pH 7.4 with 10% pooled human plasma, over 2 h, plate reader, larger and more rapid than SA‐K
  increase in ICG fluorescence in plasma relative to SA‐K (micelle disassembly): approximately three‐fold
